Experimental data taken from the supplement of paper PMC11061612.

Tests used:
Experiment in all cases: Bliss excess, mean over the matrix (fraction); higher = more synergy
[1] = tested on: BL-41 (Burkitt's Lymphoma)
Procedure, shortened: (§1)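 After 24 hours at 37°C and 5% CO2 in 1536-well plates, cells in DMEM/F12 or RPMI plus 10% FBS received two-drug dose matrices for 72 hours. Viability came from CellTiter-Glo 2.0 luminescence and was scaled as inhibition, anchored at 0 by vehicle wells and at 1 by blank wells. Combination Emax is taken as the second-highest inhibition in the matrix, and Bliss excess as the observed combination effect less EA + EB − EA·EB, with EA and EB the single-agent effects.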

[2] = tested on: CAMA-1 (Breast Carcinoma)
Procedure, shortened: as §1

[3] = tested on: DiFi (Colorectal Carcinoma)
Procedure, shortened: as §1

[4] = tested on: ES8 (Ewing's Sarcoma)
Procedure, shortened: as §1

[5] = tested on: EVSA-T (Breast Carcinoma)
Procedure, shortened: as §1

[6] = tested on: HDQ-P1 (Breast Carcinoma)
Procedure, shortened: as §1

[7] = tested on: KYSE-180 (Esophageal Squamous Cell Carcinoma)
Procedure, shortened: as §1

[8] = tested on: MEL-JUSO (Melanoma)
Procedure, shortened: as §1

[9] = tested on: MFM-223 (Breast Carcinoma)
Procedure, shortened: as §1

[10] = tested on: MKN28 (Gastric Carcinoma)
Procedure, shortened: as §1

[11] = tested on: MS751 (Cervical Carcinoma)
Procedure, shortened: as §1

[12] = tested on: NCI-H1792 (Lung Adenocarcinoma)
Procedure, shortened: as §1

[13] = tested on: NCI-H847 (Small Cell Lung Carcinoma)
Procedure, shortened: as §1

[14] = tested on: P12-ICHIKAWA (T-Lymphoblastic Leukemia)
Procedure, shortened: as §1

[15] = tested on: SU-DHL-8 (B-Cell Non-Hodgkin's Lymphoma)
Procedure, shortened: as §1

[16] = tested on: SW1417 (Colorectal Carcinoma)
Procedure, shortened: as §1

[17] = tested on: TC-71 (Ewing's Sarcoma)
Procedure, shortened: as §1

[18] = tested on: TE-6 (Esophageal Squamous Cell Carcinoma)
Procedure, shortened: as §1

[19] = tested on: U251 (Low Grade Glioma)
Procedure, shortened: as §1

[20] = tested on: WIL2-NS (Non-Cancerous)
Procedure, shortened: as §1

Structure (SMILES)	Bliss excess [1]	Bliss excess [2]	Bliss excess [3]	Bliss excess [4]	Bliss excess [5]	Bliss excess [6]	Bliss excess [7]	Bliss excess [8]	Bliss excess [9]	Bliss excess [10]	Bliss excess [11]	Bliss excess [12]	Bliss excess [13]	Bliss excess [14]	Bliss excess [15]	Bliss excess [16]	Bliss excess [17]	Bliss excess [18]	Bliss excess [19]	Bliss excess [20]
CN(C)CCCOc1ccc(-c2ccc3ncc4c(c3c2)n(C2CCOCC2)c(=O)n4C)cn1 [AZD0156] + O=C(c1cc(Cc2n[nH]c(=O)c3ccccc23)ccc1F)N1CCN(C(=O)C2CC2)CC1 [Olaparib] (first compound max 3 µM, partner max 3 µM)	0.127	0.0457	-0.0082	0.39	0.092	-0.0859	0.0654	-0.0387	-0.0186	-0.0432	-0.0033	0.0848	0.227	0.191	0.0543	-0.0287	0.3	0.0029	0.0345	0.215
C=CCn1c(=O)c2cnc(Nc3ccc(N4CCN(C)CC4)cc3)nc2n1-c1cccc(C(C)(C)O)n1 [AZD1775] + C1CN(CCC1(C(=O)N[C@@H](CCO)C2=CC=C(C=C2)Cl)N)C3=NC=NC4=C3C=CN4 [Capivasertib] (first compound max 3 µM, partner max 3 µM)	0.0156	-0.0244	0.0272	0.0352	0.129	-0.0679	-0.0066	-0.0352	-0.0369	-0.0219	0.0003	0.0053	-0.0643	0.0076	0.0097	-0.0368	0.0131	0.0422	-0.0223	-0.0675
CN(CCO)CC[C@H](CSc1ccccc1)Nc1ccc(S(=O)(=O)NC(=O)c2ccc(N3CCC([C@@H](O)c4ccccc4-c4ccc(Cl)cc4)CC3)cc2)cc1S(=O)(=O)C(F)(F)F [AZD4320] + C1CN(CCC1(C(=O)N[C@@H](CCO)C2=CC=C(C=C2)Cl)N)C3=NC=NC4=C3C=CN4 [Capivasertib] (first compound max 1 µM, 7x7, partner max 3 µM)	-0.0146	-0.0365	-0.0475	-0.0427	-0.0161	0.0119	-0.0057	-0.0472	-0.01	-0.0404	-0.009	-0.0643	0.0226	0.0119	-0.0454	-0.0671	-0.0699	0.0377	-0.0689	0.0219
CN(CCO)CC[C@H](CSc1ccccc1)Nc1ccc(S(=O)(=O)NC(=O)c2ccc(N3CCC([C@@H](O)c4ccccc4-c4ccc(Cl)cc4)CC3)cc2)cc1S(=O)(=O)C(F)(F)F [AZD4320] + C=CCn1c(=O)c2cnc(Nc3ccc(N4CCN(C)CC4)cc3)nc2n1-c1cccc(C(C)(C)O)n1 [AZD1775] (first compound max 1 µM, partner max 1 µM)	0.0361	-0.0421	0.007	0.0959	0.0394	0.0886	0.0258	0.042	-0.0103	-0.0545	-0.0494	0.0128	0.0494	0.0899	0.0017	-0.106	0.0339	0.0061	-0.0676	0.0252
CN(CCO)CC[C@H](CSc1ccccc1)Nc1ccc(S(=O)(=O)NC(=O)c2ccc(N3CCC([C@@H](O)c4ccccc4-c4ccc(Cl)cc4)CC3)cc2)cc1S(=O)(=O)C(F)(F)F [AZD4320] + CCN(CCO)CCCOc1ccc2c(Nc3cc(CC(=O)Nc4cccc(F)c4)[nH]n3)ncnc2c1 [AZD2811] (first compound max 1 µM, 7x7, partner max 1 µM)	-0.0172	0.0961	-0.013	0.0276	0.156	0.0258	0.0189	0.0289	-0.0022	-0.0107	0.0064	-0.0267	0.0014	0.0103	-0.013	-0.0306	-0.0299	0.0228	0.0287	0.0006
CN(CCO)CC[C@H](CSc1ccccc1)Nc1ccc(S(=O)(=O)NC(=O)c2ccc(N3CCC([C@@H](O)c4ccccc4-c4ccc(Cl)cc4)CC3)cc2)cc1S(=O)(=O)C(F)(F)F [AZD4320] + CN(C)CCCOc1ccc(-c2ccc3ncc4c(c3c2)n(C2CCOCC2)c(=O)n4C)cn1 [AZD0156] (first compound max 1 µM, 7x7, partner max 1 µM)	0.0153	-0.0591	0.0046	0.0079	-0.0125	-0.03	-0.0037	0.0034	-0.0347	-0.0429	-0.0248	-0.0144	0.0109	0.024	-0.044	-0.0567	-0.0112	0.0418	-0.0374	0.0109
CN(CCO)CC[C@H](CSc1ccccc1)Nc1ccc(S(=O)(=O)NC(=O)c2ccc(N3CCC([C@@H](O)c4ccccc4-c4ccc(Cl)cc4)CC3)cc2)cc1S(=O)(=O)C(F)(F)F [AZD4320] + C[C@@H]1COCCN1C2=NC(=NC(=C2)C3(CC3)[S@](=N)(=O)C)C4=C5C=CNC5=NC=C4 [AZD6738] (first compound max 1 µM, 7x7, partner max 10 µM)	-0.0221	-0.0016	-0.0044	0.155	-0.0105	0.0268	-0.0042	-0.0159	-0.0367	-0.0528	0.0029	-0.0647	-0.0091	-0.0133	0.019	-0.0757	0.075	-0.0927	-0.0272	-0.0004
CN(CCO)CC[C@H](CSc1ccccc1)Nc1ccc(S(=O)(=O)NC(=O)c2ccc(N3CCC([C@@H](O)c4ccccc4-c4ccc(Cl)cc4)CC3)cc2)cc1S(=O)(=O)C(F)(F)F [AZD4320] + C[C@@H](Nc1cc(F)cc(F)c1)c1cc(C(=O)N(C)C)cc2c(=O)cc(N3CCOCC3)oc12 [AZD8186] (first compound max 1 µM, 7x7, partner max 3 µM)	0.0388	0.0218	-0.034	0.0142	0.0222	-0.0018	0.0343	0.033	-0.0059	0.0229	0.0982	0.0942	0.0851	0.0502	-0.0714	0.0346	-0.027	0.0313	-0.0013	-0.0709
CN(CCO)CC[C@H](CSc1ccccc1)Nc1ccc(S(=O)(=O)NC(=O)c2ccc(N3CCC([C@@H](O)c4ccccc4-c4ccc(Cl)cc4)CC3)cc2)cc1S(=O)(=O)C(F)(F)F [AZD4320] + Cc1cc2ncnn2cc1Nc1ncc2c(n1)n(C1CCOCC1)c(=O)n2C [AZD7648] (first compound max 1 µM, 7x7, partner max 10 µM)	0.0115	-0.0031	-0.0203	-0.0594	-0.0237	-0.0085	-0.0091	-0.0065	-0.0229	-0.036	-0.0353	-0.024	0.0478	-0.002	-0.0255	-0.0426	-0.0201	-0.0059	-0.0405	-0.029
CN(CCO)CC[C@H](CSc1ccccc1)Nc1ccc(S(=O)(=O)NC(=O)c2ccc(N3CCC([C@@H](O)c4ccccc4-c4ccc(Cl)cc4)CC3)cc2)cc1S(=O)(=O)C(F)(F)F [AZD4320] + Cn1cnc2c(F)c(Nc3ccc(Br)cc3Cl)c(C(=O)NOCCO)cc21 [Selumetinib] (first compound max 1 µM, 7x7, partner max 3 µM)	0.039	0.0043	0.0838	-0.0479	0.0703	0.0877	0.0148	-0.0081	-0.0146	0.0272	0.0636	0.0416	0.0247	0.0748	-0.102	0.056	0.0614	-0.0277	-0.0087	0.0074
COc1cccc(OCCCN)c1-c1cc(Nc2cnc(C#N)cn2)n[nH]1 [Prexasertib] + O=C(c1cc(Cc2n[nH]c(=O)c3ccccc23)ccc1F)N1CCN(C(=O)C2CC2)CC1 [Olaparib] (first compound max 1 µM, 7x7, partner max 10 µM)	-0.0346	-0.188	-0.0265	-0.066	-0.0312	0.0002	-0.0371	-0.0741	-0.124	-0.133	0.034	-0.0161	-0.0027	–	-0.0668	-0.0459	-0.017	-0.0452	0.0369	-0.0174
COc1cc2c(cc1OCCCCCOc1cc3c(cc1OC)C(=O)N1C=C(C)C[C@H]1C=N3)N=C[C@@H]1CC(C)=CN1C2=O [SG3199] + O=C(c1cc(Cc2n[nH]c(=O)c3ccccc23)ccc1F)N1CCN(C(=O)C2CC2)CC1 [Olaparib] (first compound max 0.001 µM, 7x7, partner max 10 µM)	-0.0163	-0.0443	-0.0495	-0.0206	-0.0094	-0.035	-0.0177	-0.024	-0.0307	-0.0469	-0.075	-0.0479	-0.0375	–	0.0547	-0.0472	-0.0224	-0.0256	-0.0016	-0.0239
CCc1c2c(nc3ccc(O)cc13)-c1cc3c(c(=O)n1C2)COC(=O)[C@]3(O)CC [SN-38] + CN(C)CCCOc1ccc(-c2ccc3ncc4c(c3c2)n(C2CCOCC2)c(=O)n4C)cn1 [AZD0156] (first compound max 0.3 µM, 7x7, partner max 1 µM)	0.0556	-0.0477	0.0735	0.0458	-0.0354	0.0065	0.0421	0.0265	-0.0144	0.0117	0.0355	0.0517	-0.023	–	-0.059	-0.033	0.0736	-0.0254	-0.0239	0.08
